± gives the standard deviation.
assay: chemical recovery by SPE of plasma after PDMS sampling; higher = better extraction; settings: pooled human plasma; extraction method: HLB SPE of plasma after PES; equilibration time (d): 1
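Further: over 400 spiked chemicals quantified by LC-HRMS or GC-HRMS via internal standard calibration, recovery relative to spike mix added to unspiked plasma extract to correct matrix effects.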

Row | Compound | chemical recovery by SPE of plasma
1 | Clc1cc(Cl)c(-c2cc(Cl)c(Cl)c(Cl)c2Cl)cc1Cl [PCB180] | 4.51 ± 2.9%
2 | COC(=O)[C@H](c1ccccc1Cl)N1CCc2sccc2C1 [Clopidogrel] | 0.677 ± 0.17%
3 | O=C1Nc2ccc(Cl)cc2C(C#CC2CC2)(C(F)(F)F)O1 (stereo not given) [Efavirenz] | 4.94 ± 4.3%
4 | Fc1ccc([C@]2(Cn3cncn3)O[C@H]2c2ccccc2Cl)cc1 (racemic) [Epoxiconazole] | 0.968 ± 0.044%
5 | OC(Cc1ccccc1Cl)(Cn1cncn1)C1(Cl)CC1 (stereo not given) [Prothioconazole-desthio] | 0.693 ± 0.059%
6 | NC(=O)Nc1ccc(Cl)c(Cl)c1 [3,4-Dichlorophenylurea] | 40.1 ± 4.3%
7 | O=P1(NCCCl)OCCCN1CCCl (stereo not given) [Ifosfamide] | 54.9 ± 6.7%
8 | Brc1cc(Br)c(Oc2cc(Br)c(Br)cc2Br)c(Br)c1 [BDE154] | 1.62 ± 1.4%
9 | CC1(C)CCC(Cc2ccc(Cl)cc2)C1(O)Cn1cncn1 (stereo not given) [Metconazole] | 2.06 ± 0.36%
10 | c1cc2ccc3cccc4ccc(c1)c2c34 [Pyrene] | 4.17 ± 2.2%
11 | C[C@]12CCC(=O)C=C1CC[C@@H]1[C@@H]2CC[C@]2(C)C(=O)CC[C@@H]12 [4-Androstene-3,17-dione] | 1.37 ± 2.1%
12 | CCCN(CCOc1c(Cl)cc(Cl)cc1Cl)C(=O)NC=O | 3.65 ± 3.2%
13 | CCCC1O[C@@H]2C[C@H]3[C@@H]4CCC5=CC(=O)C=C[C@]5(C)[C@H]4[C@@H](O)C[C@]3(C)[C@]2(C(=O)CO)O1 (stereo not given in full) [Budesonide] | 35.3 ± 6.4%
14 | Brc1ccc(Oc2cc(Br)c(Br)cc2Br)c(Br)c1 [BDE99] | 1.13 ± 1.1%
15 | CCNc1ccc2c(C)cc(=O)oc2c1 [7-(Ethylamino)-4-methylcoumarin] | 6.09 ± 0.59%
16 | O=C(/C=C/C=C/c1ccc2c(c1)OCO2)N1CCCCC1 [Piperine] | 1.77 ± 0.44%
17 | O=C(O)CCC(=O)c1ccc(F)cc1 [4-Fluorobenzoylpropionic acid] | 60.4 ± 6.4%
18 | Nc1cnn(-c2ccccc2)c(=O)c1Cl [Chloridazon] | 53.7 ± 8.1%
19 | O=S(=O)(c1ccccc1)c1ccccc1 [Diphenylsulfone] | 5.48 ± 3.7%
20 | O=P(OC(CCl)CCl)(OC(CCl)CCl)OC(CCl)CCl [TDCPP] | 4.16 ± 3.7%
21 | CN(Cc1nc2c(N)nc(N)nc2nc1O)c1ccc(C(=O)N[C@@H](CCC(=O)O)C(=O)O)cc1 [7-Hydroxymethotrexate] | 38.5 ± 7.5%
22 | COCCN(C(=O)CS(=O)(=O)O)c1c(C)cccc1C [Dimethachlor ESA] | 46.9 ± 7.3%

Row | Compound | chemical recovery by SPE of plasma
23 | CCOC1Oc2ccc(OS(C)(=O)=O)cc2C1(C)C (stereo not given) [Ethofumesate] | 0.62 ± 1.1%
24 | c1ccc2sc(N3CCOCC3)nc2c1 [2(4-morpholinyl)benzothiazole] | 1.2 ± 0.1%
25 | Clc1ccc2ccccc2c1 [2-Chloronaphthalene] | 3.42 ± 3%
26 | Clc1ccc(Cl)c(-c2cccc(Cl)c2Cl)c1 [PCB44] | 1.35 ± 0.87%
27 | Clc1ccc(-c2cc(Cl)c(Cl)cc2Cl)cc1Cl [PCB118] | 2.43 ± 1.6%
28 | O=S(=O)(O)c1ccccc1 [Benzenesulfonic acid] | 3.18 ± 3.5%
29 | Nc1cn[nH]c(=O)c1Cl [Desphenyl chloridazon] | 2.76 ± 0.75%
30 | CN(C)c1ccc(C(=O)c2ccc(N(C)C)cc2)cc1 [Michler's ketone] | 1.38 ± 0.41%
31 | CC(C)(C)C(=O)C(Oc1ccc(Cl)cc1)n1ccnc1 (stereo not given) [Climbazole] | 1.65 ± 0.14%
32 | N#Cc1nn(-c2c(Cl)cc(C(F)(F)F)cc2Cl)c(N)c1[S+]([O-])C(F)(F)F (stereo not given) [Fipronil] | 19 ± 4.9%
33 | CCOC(=O)CC(O)(CC(=O)OCC)C(=O)OCC [Triethylcitrate] | 18.1 ± 0.54%
34 | CS(=O)(=O)c1ccc(C(=O)C2C(=O)CCCC2=O)c(Cl)c1 [Sulcotrione] | 53.9 ± 7%
35 | CN(C)CCC=C1c2ccccc2CCc2ccccc21 [Amitriptyline] | 0.152 ± 0.26%
36 | O=c1c2ccccc2[nH]c2ccccc12 [Acridone] | 57.8 ± 8.4%
37 | ClC1=C(Cl)[C@]2(Cl)[C@@H]3[C@@H]4C[C@@H]([C@H]5O[C@@H]45)[C@@H]3[C@@]1(Cl)C2(Cl)Cl [Dieldrin] | 0.594 ± 1%
38 | CCOC(=O)c1ccc(N(C)C)cc1 [Ethyl 4-(dimethylamino)benzoate] | 1.27 ± 0.14%
39 | Clc1ccc(Cl)c(-c2ccccc2Cl)c1 [PCB18] | 0.716 ± 0.48%
40 | C[Si](Cn1cncn1)(c1ccc(F)cc1)c1ccc(F)cc1 [Flusilazole] | 0.32 ± 0.12%
41 | CC(C)N(C(=O)COc1nnc(C(F)(F)F)s1)c1ccc(F)cc1 [Flufenacet] | 0.558 ± 0.061%
42 | C#C[C@]1(OC(C)=O)CC[C@H]2[C@@H]3CCC4=CC(=NO)CC[C@@H]4[C@H]3CC[C@@]21CC (mixture of isomers) [Norgestimate] | 1.42 ± 1.2%
43 | CN1C(=O)CN=C(c2ccccc2)c2cc(Cl)ccc21 [Diazepam] | 9.29 ± 2%
44 | OC(c1ccc(Cl)cc1)(c1ccc(Cl)cc1)C(Cl)(Cl)Cl [Dicofol] | 11.5 ± 8.1%

same assay, conditions: pooled human plasma; extraction method: HLB SPE of plasma after PES; equilibration time (d): 3

Row | Compound | chemical recovery by SPE of plasma
45 | Clc1cc(Cl)c(-c2cc(Cl)c(Cl)c(Cl)c2Cl)cc1Cl [PCB180] | 3.71 ± 1%
46 | COC(=O)[C@H](c1ccccc1Cl)N1CCc2sccc2C1 [Clopidogrel] | 1.02 ± 0.078%
47 | O=C1Nc2ccc(Cl)cc2C(C#CC2CC2)(C(F)(F)F)O1 (stereo not given) [Efavirenz] | 6.96 ± 1.3%
48 | Fc1ccc(Oc2ccnc3cc(Cl)cc(Cl)c23)cc1 [Quinoxyfen] | 0.232 ± 0.06%
49 | Fc1ccc([C@]2(Cn3cncn3)O[C@H]2c2ccccc2Cl)cc1 (racemic) [Epoxiconazole] | 0.628 ± 0.21%
50 | OC(Cc1ccccc1Cl)(Cn1cncn1)C1(Cl)CC1 (stereo not given) [Prothioconazole-desthio] | 0.829 ± 0.22%
51 | NC(=O)Nc1ccc(Cl)c(Cl)c1 [3,4-Dichlorophenylurea] | 40.9 ± 3%
52 | O=P1(NCCCl)OCCCN1CCCl (stereo not given) [Ifosfamide] | 56.1 ± 4.8%
53 | Brc1cc(Br)c(Oc2cc(Br)c(Br)cc2Br)c(Br)c1 [BDE154] | 1.94 ± 0.88%
54 | CC1(C)CCC(Cc2ccc(Cl)cc2)C1(O)Cn1cncn1 (stereo not given) [Metconazole] | 1.76 ± 0.4%
55 | c1cc2ccc3cccc4ccc(c1)c2c34 [Pyrene] | 5.06 ± 1.2%
56 | C[C@]12CCC(=O)C=C1CC[C@@H]1[C@@H]2CC[C@]2(C)C(=O)CC[C@@H]12 [4-Androstene-3,17-dione] | 4.32 ± 1.8%
57 | CCOC(=O)C(C)(C)Oc1ccc(Cl)cc1 [Clofibrate] | 0.676 ± 1.2%
58 | CCCN(CCOc1c(Cl)cc(Cl)cc1Cl)C(=O)NC=O | 2.44 ± 2.1%
59 | CCNc1ccc2c(C)cc(=O)oc2c1 [7-(Ethylamino)-4-methylcoumarin] | 4.96 ± 0.66%
60 | O=C(/C=C/C=C/c1ccc2c(c1)OCO2)N1CCCCC1 [Piperine] | 1.85 ± 0.37%
61 | O=C(O)CCC(=O)c1ccc(F)cc1 [4-Fluorobenzoylpropionic acid] | 60.3 ± 4.6%
62 | Nc1cnn(-c2ccccc2)c(=O)c1Cl [Chloridazon] | 57.1 ± 3.2%
63 | O=S(=O)(c1ccccc1)c1ccccc1 [Diphenylsulfone] | 9.14 ± 0.92%
64 | O=P(OC(CCl)CCl)(OC(CCl)CCl)OC(CCl)CCl [TDCPP] | 4.02 ± 4.5%
65 | CN(Cc1nc2c(N)nc(N)nc2nc1O)c1ccc(C(=O)N[C@@H](CCC(=O)O)C(=O)O)cc1 [7-Hydroxymethotrexate] | 45.7 ± 5.5%
66 | COCCN(C(=O)CS(=O)(=O)O)c1c(C)cccc1C [Dimethachlor ESA] | 53.3 ± 3.2%
67 | CCOC1Oc2ccc(OS(C)(=O)=O)cc2C1(C)C (stereo not given) [Ethofumesate] | 1.94 ± 1.7%
68 | c1ccc2sc(N3CCOCC3)nc2c1 [2(4-morpholinyl)benzothiazole] | 1.41 ± 0.23%

Row | Compound | chemical recovery by SPE of plasma
69 | CS(=O)(=O)c1ccccc1 [Methylphenylsulfone] | 104 ± 9.2%
70 | Clc1ccc(Cl)c(-c2cccc(Cl)c2Cl)c1 [PCB44] | 1.34 ± 0.13%
71 | Clc1ccc(-c2cc(Cl)c(Cl)cc2Cl)cc1Cl [PCB118] | 1.87 ± 0.24%
72 | O=S(=O)(O)c1ccccc1 [Benzenesulfonic acid] | 1.77 ± 0.98%
73 | Nc1cn[nH]c(=O)c1Cl [Desphenyl chloridazon] | 2.06 ± 0.86%
74 | CN(C)c1ccc(C(=O)c2ccc(N(C)C)cc2)cc1 [Michler's ketone] | 1.1 ± 0.12%
75 | C#C[C@]1(O)CC[C@H]2[C@@H]3CCC4=CC(=O)CC[C@@H]4[C@H]3CC[C@@]21C [Norethindrone] | 4.09 ± 7.1%
76 | c1ccc(Cc2ccccc2)cc1 [Diphenylmethane] | 10.1 ± 5.8%
77 | CC(C)(C)C(=O)C(Oc1ccc(Cl)cc1)n1ccnc1 (stereo not given) [Climbazole] | 1.11 ± 0.35%
78 | N#Cc1nn(-c2c(Cl)cc(C(F)(F)F)cc2Cl)c(N)c1[S+]([O-])C(F)(F)F (stereo not given) [Fipronil] | 21.5 ± 4.3%
79 | CCOC(=O)CC(O)(CC(=O)OCC)C(=O)OCC [Triethylcitrate] | 26.1 ± 4.4%
80 | CCc1cccc(C)c1N(C(=O)CS(=O)(=O)O)[C@@H](C)C(=O)O [Metolachlor-NOA 413-173] | 27.8 ± 9.2%
81 | CS(=O)(=O)c1ccc(C(=O)C2C(=O)CCCC2=O)c(Cl)c1 [Sulcotrione] | 59.9 ± 2.5%
82 | CN(C)CCC=C1c2ccccc2CCc2ccccc21 [Amitriptyline] | 0.14 ± 0.12%
83 | C=CCC1=C(C)C(OC(=O)C2C(C=C(C)C)C2(C)C)CC1=O (stereo not given) [Allethrin] | 0.042 ± 0.073%
84 | O=c1c2ccccc2[nH]c2ccccc12 [Acridone] | 55.6 ± 1.6%
85 | CCC(=O)O[C@]1(C(=O)SCF)[C@H](C)C[C@H]2[C@@H]3C[C@H](F)C4=CC(=O)C=C[C@]4(C)[C@@]3(F)[C@@H](O)C[C@@]21C [Fluticasone propionate] | 4.78 ± 8.3%
86 | CCOC(=O)c1ccc(N(C)C)cc1 [Ethyl 4-(dimethylamino)benzoate] | 1.79 ± 0.23%
87 | Clc1ccc(Cl)c(-c2ccccc2Cl)c1 [PCB18] | 0.693 ± 0.67%
88 | C[Si](Cn1cncn1)(c1ccc(F)cc1)c1ccc(F)cc1 [Flusilazole] | 0.383 ± 0.15%
89 | CC(C)N(C(=O)COc1nnc(C(F)(F)F)s1)c1ccc(F)cc1 [Flufenacet] | 0.583 ± 0.14%
90 | CN1C(=O)CN=C(c2ccccc2)c2cc(Cl)ccc21 [Diazepam] | 6.7 ± 0.88%
91 | OC(c1ccc(Cl)cc1)(c1ccc(Cl)cc1)C(Cl)(Cl)Cl [Dicofol] | 15 ± 1.5%

same assay, conditions: pooled human plasma; extraction method: HLB SPE of plasma after PES; equilibration time (d): 6

Row | Compound | chemical recovery by SPE of plasma
92 | Clc1cc(Cl)c(-c2cc(Cl)c(Cl)c(Cl)c2Cl)cc1Cl [PCB180] | 1.43 ± 0.49%
93 | COC(=O)[C@H](c1ccccc1Cl)N1CCc2sccc2C1 [Clopidogrel] | 0.597 ± 0.026%
94 | O=C1Nc2ccc(Cl)cc2C(C#CC2CC2)(C(F)(F)F)O1 (stereo not given) [Efavirenz] | 1.44 ± 2.5%
95 | Fc1ccc([C@]2(Cn3cncn3)O[C@H]2c2ccccc2Cl)cc1 (racemic) [Epoxiconazole] | 0.285 ± 0.018%
96 | OC(Cc1ccccc1Cl)(Cn1cncn1)C1(Cl)CC1 (stereo not given) [Prothioconazole-desthio] | 0.428 ± 0.025%
97 | Nc1nc(N)nc(NC2CC2)n1 [Cyromazine] | 5.59 ± 4.5%
98 | NC(=O)Nc1ccc(Cl)c(Cl)c1 [3,4-Dichlorophenylurea] | 36.5 ± 1.1%
99 | O=P1(NCCCl)OCCCN1CCCl (stereo not given) [Ifosfamide] | 47.3 ± 4.7%
100 | CC1(C)CCC(Cc2ccc(Cl)cc2)C1(O)Cn1cncn1 (stereo not given) [Metconazole] | 1.11 ± 0.42%

Source: the supplement of paper PMC10702517
